Results from US11325936B2, “Sialidase inhibitors and preparation thereof” (The Regents of the University of California, priority 2017, dated 2022).

What was measured:
SpNanC [1] = molecular target: T1, SpNanC (Streptococcus pneumoniae, UniProt A0A0H2UQE4); details: Tris-HCl pH 7.0, 10 min at 37° C.
SpNanC [2] = test: Substrate specificity assay of SpNanC; details: sialoside substrate 0.3 mM; SpNanC (2 μg); Tris-HCl pH 7.0; 30 min, 37° C.
SpNanB [3] = molecular target: T2, SpNanB (Streptococcus pneumoniae serotype 4, UniProt Q54727, E68D/K536E/K577E/N393D/S59P); test: Substrate specificity of SpNanB; details: pNP-tagged α2-3-linked sialosides
SpNanB [4] = molecular target: T2, SpNanB; test: Sialidase inhibition assay (Example 7); type: biochemical; details: pH 6, read-out: Percentage inhibition (%) against SpNanB
AuSialidase = molecular target: T3, AuSialidase (Paenarthrobacter ureafaciens, UniProt Q5W7Q2); test: Sialidase inhibition assay (Example 7); type: biochemical, Arthrobacter ureafaciens; details: 1 mM of each inhibitor; substrate Neu5Acα2-3GalβpNP 0.3 mM; pH 5.5; read-out: Percentage inhibition (%) against AuSialidase
T3 sequence (Q5W7Q2 39-990): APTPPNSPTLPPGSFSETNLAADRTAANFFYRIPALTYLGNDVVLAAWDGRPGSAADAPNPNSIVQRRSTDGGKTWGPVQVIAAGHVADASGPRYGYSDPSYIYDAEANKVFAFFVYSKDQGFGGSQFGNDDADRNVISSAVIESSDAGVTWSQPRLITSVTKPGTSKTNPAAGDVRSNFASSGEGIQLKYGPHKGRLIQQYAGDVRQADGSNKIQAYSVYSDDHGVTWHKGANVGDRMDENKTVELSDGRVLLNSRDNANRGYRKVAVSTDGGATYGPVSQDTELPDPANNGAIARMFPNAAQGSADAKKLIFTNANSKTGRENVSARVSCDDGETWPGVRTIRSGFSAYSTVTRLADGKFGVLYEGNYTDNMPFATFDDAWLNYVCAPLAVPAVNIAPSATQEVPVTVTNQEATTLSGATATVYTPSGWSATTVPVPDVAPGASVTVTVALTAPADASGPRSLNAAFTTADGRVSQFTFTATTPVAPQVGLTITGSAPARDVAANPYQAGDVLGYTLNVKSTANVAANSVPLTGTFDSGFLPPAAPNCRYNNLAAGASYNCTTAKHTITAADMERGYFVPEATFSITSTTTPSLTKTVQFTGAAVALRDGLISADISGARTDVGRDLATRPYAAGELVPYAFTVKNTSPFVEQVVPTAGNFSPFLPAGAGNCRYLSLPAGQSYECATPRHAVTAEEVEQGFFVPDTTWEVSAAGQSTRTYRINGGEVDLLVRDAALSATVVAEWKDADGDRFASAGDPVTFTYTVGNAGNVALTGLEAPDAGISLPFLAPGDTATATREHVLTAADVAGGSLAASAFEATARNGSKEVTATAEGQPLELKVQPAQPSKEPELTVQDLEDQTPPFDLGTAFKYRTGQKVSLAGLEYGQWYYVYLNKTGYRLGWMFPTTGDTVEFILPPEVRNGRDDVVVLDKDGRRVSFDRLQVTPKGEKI

PmST1 [5] = molecular target: T4, PmST1 (Pasteurella multocida, UniProt Q15KI8); test: Sialidase inhibition assay (Example 7); type: biochemical; details: 1 mM of each inhibitor; substrate Neu5Acα2-3GalβpNP 0.3 mM; CMP 0.4 mM; pH 5.5; read-out: Percentage inhibition (%) against PmST1
CpNanI = type: biochemical, Clostridium perfringens; details: 1 mM of each inhibitor; substrate Neu5Acα2-3GalβpNP 0.3 mM; pH 5.0
hNEU2 = hNEU2 (Homo sapiens, UniProt Q9Y3R4); test: Sialidase inhibition assay (Example 7); type: biochemical; details: 1 mM of each inhibitor; substrate Neu5Acα2-3GalβpNP 0.3 mM; pH 5.0; read-out: Percentage inhibition (%) against hNEU2
VcSialidase = VcSialidase (Vibrio cholerae serotype O1, UniProt P0C6E9); test: Sialidase inhibition assay (Example 7); type: biochemical; details: pH 5.5, read-out: Percentage inhibition (%) against VcSialidase
SpNanC [6] = molecular target: T1, SpNanC; test: Sialidase inhibition assay (Example 7); details: pH 6.5, read-out: Percentage inhibition (%) against SpNanC
BiNanH2 [7] = molecular target: T5, BiNanH2 (Bifidobacterium longum subsp. infantis, UniProt A0ACD7UU12); test: Sialidase inhibition assay (Example 7); type: biochemical; details: pH 5, read-out: Percentage inhibition (%) against BiNanH2
SpNanA = SpNanA (Streptococcus pneumoniae, UniProt P62575); test: Sialidase inhibition assay (Example 7); type: biochemical; details: pH 6, read-out: Percentage inhibition (%) against SpNanA
SpNanC [8] = molecular target: T1, SpNanC; test: Sialidase inhibition assay (Example 4); type: biochemical; details: pH 6.5, read-out: Percentage inhibition (%) against SpNanC
PmST1 [9] = molecular target: T4, PmST1; test: Sialidase inhibition assay (Example 4); type: biochemical; details: 0.1 mM of each inhibitor; substrate Neu5Acα2-3GalβpNP 0.3 mM; pH 5.5; read-out: Percentage inhibition (%) against PmST1
Description: The assay conditions varied for different sialidases as described below: SpNanA (0.0015 μg), NaOAc buffer (100 mM, pH 6.0); SpNanB (0.003 μg), NaOAc buffer (100 mM, pH 6.0); SpNanC (0.02 μg), MES buffer (100 mM, pH 6.5); AuSialidase (1.0 mU), NaOAc buffer (100 mM, pH 5.5); CpNanI (2.0 mU), MES buffer (100 mM, pH 5.0); CpNanH (0.5 mU), MES buffer (100 mM, pH 5.0); VcSialidase (1.5 mU), NaCl (150 mM), CaCl2) (10 mM), NaOAc buffer (100 mM, pH 5.5); PmST1 (34.4 μg), NaOAc buffer (100 mM, pH 5.5); BiNanH2, NaOAc buffer (100 mM, pH 5.0); hNEU2 (22.0 μg), MES buffer (100 mM, pH 5.0). The reactions were incubated for 30 min at 37° C., and were stopped by adding CAPS buffer (N-cyclohexyl-3-aminopropane sulfonic acid, 40 μL, 0.5 M, pH 10.5). The amount of the para-nitrophenolate formed was determined by measuring the A405 nm Of the reaction mixtures using a microplate reader.
The percentage inhibitions were determined using a concentration of 0.1 mM of each inhibitor, with reactions without inhibitors as controls. […] The values of IC50 were calculated by the software Grafit 5.0.

BiNanH2 [10] = molecular target: T5, BiNanH2; test: Sialidase inhibition assay (Example 4); type: biochemical; details: pH 5, read-out: Percentage inhibition (%) against BiNanH2, 0.1 mM of each inhibitor, substrate Neu5Acα2-3GalβpNP 0.3 mM
SpNanB [11] = molecular target: T2, SpNanB; test: Sialidase inhibition assay (Example 4); type: biochemical; details: pH 6, read-out: Percentage inhibition (%) against SpNanB
CpNanH = CpNanH (Clostridium perfringens, UniProt P10481); test: biochemical; details: pH 5.0; read-out: Percentage inhibition (%) against CpNanH
SpNanC [12] = details: previously reported recombinant SpNanC; cited from earlier work

T2 sequence (Q54727 30-697 S59P/E68D/N393D/K536E/K577E): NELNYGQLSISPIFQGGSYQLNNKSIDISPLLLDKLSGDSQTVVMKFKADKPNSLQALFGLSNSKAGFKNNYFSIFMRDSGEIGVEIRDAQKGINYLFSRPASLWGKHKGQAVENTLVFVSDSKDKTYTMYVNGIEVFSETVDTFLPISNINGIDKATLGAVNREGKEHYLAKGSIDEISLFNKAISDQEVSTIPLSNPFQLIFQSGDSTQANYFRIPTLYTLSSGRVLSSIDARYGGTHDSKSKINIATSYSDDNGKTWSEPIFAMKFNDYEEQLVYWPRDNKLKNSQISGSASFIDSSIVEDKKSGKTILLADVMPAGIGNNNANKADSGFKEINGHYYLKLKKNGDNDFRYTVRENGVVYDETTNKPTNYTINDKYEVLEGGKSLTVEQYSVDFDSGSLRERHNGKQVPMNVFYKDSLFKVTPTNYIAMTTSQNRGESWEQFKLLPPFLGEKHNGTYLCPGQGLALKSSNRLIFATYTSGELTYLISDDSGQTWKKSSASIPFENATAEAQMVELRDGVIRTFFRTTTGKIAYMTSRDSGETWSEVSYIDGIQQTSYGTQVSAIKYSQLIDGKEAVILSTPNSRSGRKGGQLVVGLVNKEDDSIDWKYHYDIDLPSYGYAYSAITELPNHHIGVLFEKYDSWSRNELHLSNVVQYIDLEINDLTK
T4 sequence (Q15KI8 entry or part of it): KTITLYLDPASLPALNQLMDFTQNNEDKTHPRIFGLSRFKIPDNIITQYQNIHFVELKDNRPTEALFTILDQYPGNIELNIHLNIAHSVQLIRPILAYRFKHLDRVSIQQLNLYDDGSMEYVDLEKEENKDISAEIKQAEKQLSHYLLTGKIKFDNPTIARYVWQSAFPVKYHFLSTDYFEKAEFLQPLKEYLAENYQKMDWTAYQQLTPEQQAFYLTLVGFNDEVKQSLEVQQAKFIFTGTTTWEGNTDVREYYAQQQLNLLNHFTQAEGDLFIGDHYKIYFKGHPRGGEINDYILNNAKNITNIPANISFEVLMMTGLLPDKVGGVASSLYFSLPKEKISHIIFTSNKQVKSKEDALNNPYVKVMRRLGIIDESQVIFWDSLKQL
T5 sequence (A0ACD7UU12 entry or part of it): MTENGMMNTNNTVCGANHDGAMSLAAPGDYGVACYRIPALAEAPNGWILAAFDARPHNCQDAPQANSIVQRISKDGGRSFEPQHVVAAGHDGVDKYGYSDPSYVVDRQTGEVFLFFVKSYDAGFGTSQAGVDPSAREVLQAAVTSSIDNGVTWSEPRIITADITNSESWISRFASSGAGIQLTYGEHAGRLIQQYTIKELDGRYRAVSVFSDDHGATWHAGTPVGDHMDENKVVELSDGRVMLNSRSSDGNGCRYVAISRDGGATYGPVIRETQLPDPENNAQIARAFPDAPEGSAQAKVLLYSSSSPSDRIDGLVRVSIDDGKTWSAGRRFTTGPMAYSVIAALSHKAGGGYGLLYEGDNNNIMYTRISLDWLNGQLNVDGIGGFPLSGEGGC
T1 sequence (A0A0H2UQE4 entry or part of it): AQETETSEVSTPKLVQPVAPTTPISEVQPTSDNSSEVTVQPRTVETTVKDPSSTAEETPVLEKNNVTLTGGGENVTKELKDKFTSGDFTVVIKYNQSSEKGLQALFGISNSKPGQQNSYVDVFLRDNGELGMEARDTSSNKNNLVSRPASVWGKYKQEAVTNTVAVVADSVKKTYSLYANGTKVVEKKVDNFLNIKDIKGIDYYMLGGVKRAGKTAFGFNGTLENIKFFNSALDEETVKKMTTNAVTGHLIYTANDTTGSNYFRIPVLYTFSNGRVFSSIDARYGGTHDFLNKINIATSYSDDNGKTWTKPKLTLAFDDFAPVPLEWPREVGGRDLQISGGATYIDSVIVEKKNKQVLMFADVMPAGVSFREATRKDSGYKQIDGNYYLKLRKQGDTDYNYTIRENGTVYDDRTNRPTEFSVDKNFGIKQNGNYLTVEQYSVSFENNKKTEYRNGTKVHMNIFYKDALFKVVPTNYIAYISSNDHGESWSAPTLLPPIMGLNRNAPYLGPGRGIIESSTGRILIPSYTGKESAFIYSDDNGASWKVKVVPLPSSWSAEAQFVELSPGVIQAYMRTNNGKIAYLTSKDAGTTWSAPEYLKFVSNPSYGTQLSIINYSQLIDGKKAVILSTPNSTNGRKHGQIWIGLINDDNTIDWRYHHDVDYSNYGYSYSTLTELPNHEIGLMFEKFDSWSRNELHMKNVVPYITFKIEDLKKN
Sequence of SpNanA (P62575 54-1006): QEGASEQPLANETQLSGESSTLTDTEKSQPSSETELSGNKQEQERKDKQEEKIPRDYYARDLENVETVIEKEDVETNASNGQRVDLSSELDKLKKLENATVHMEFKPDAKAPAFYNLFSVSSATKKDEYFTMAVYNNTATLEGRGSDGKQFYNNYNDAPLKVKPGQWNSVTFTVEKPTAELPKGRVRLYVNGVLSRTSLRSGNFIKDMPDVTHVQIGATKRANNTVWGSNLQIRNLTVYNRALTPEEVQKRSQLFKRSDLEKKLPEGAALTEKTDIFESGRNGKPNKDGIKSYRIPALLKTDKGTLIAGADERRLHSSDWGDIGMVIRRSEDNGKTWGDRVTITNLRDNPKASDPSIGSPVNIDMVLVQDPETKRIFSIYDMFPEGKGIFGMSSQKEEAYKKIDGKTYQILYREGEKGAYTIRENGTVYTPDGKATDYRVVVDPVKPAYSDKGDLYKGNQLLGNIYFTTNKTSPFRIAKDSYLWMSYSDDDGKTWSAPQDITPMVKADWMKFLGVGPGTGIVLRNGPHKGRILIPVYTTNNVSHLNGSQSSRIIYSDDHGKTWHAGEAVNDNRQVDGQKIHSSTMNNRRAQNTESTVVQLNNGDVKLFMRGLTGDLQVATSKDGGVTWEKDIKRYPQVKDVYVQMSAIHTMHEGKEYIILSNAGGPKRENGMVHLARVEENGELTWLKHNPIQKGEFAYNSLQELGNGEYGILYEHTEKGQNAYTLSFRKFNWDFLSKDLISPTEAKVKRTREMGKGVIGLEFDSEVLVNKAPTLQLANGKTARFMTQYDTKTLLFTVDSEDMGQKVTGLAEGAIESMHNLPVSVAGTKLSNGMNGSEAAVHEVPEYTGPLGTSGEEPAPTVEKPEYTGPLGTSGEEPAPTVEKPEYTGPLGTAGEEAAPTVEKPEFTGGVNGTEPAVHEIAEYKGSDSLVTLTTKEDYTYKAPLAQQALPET
Sequence of VcSialidase (P0C6E9 25-781): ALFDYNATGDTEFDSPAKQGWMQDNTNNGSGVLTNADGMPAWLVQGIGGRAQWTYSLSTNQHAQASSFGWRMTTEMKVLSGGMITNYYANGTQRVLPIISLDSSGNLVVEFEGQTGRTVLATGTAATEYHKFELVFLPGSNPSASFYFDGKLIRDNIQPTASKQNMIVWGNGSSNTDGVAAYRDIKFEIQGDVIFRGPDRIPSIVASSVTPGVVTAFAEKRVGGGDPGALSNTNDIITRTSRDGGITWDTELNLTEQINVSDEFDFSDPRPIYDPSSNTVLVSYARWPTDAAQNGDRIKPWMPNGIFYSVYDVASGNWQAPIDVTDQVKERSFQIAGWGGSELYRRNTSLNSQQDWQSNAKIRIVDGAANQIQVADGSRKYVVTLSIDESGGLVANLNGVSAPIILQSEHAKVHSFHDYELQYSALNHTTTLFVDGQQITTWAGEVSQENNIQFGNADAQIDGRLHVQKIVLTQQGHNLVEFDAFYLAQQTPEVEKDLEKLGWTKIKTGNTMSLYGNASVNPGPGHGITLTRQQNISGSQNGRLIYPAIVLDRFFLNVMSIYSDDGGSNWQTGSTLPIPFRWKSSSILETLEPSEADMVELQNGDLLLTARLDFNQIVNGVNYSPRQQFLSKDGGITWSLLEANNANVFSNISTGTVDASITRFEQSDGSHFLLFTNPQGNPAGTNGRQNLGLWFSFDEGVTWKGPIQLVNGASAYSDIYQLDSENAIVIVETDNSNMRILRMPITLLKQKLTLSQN
Sequence of CpNanH (P10481 whole entry, looked up): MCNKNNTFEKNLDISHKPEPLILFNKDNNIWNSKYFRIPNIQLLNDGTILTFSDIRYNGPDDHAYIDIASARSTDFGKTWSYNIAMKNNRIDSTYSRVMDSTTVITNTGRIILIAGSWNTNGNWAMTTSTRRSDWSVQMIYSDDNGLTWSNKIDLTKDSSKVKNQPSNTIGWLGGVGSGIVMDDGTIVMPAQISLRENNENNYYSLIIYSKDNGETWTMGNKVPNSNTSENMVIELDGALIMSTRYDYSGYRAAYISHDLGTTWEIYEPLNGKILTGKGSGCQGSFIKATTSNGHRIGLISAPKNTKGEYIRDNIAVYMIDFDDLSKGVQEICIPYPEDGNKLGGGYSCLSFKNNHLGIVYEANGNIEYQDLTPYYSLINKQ
Sequence of hNEU2 (Q9Y3R4 whole entry): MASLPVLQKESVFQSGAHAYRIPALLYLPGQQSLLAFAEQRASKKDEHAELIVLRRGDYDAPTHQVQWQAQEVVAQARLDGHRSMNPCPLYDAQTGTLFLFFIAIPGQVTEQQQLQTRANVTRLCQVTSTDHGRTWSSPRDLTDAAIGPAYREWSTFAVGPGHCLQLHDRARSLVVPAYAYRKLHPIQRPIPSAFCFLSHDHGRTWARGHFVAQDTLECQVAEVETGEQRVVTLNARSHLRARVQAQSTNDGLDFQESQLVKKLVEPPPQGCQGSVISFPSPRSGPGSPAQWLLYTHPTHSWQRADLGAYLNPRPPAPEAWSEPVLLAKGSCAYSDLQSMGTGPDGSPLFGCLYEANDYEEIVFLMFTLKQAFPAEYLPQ

SMILES | Km (SpNanC [1]) [µM] | kcat (SpNanC [1]) [s⁻¹] | Percentage conversion (%) by SpNanC (SpNanC [2]) [%] | Recognition by SpNanB (substrate specificity) (SpNanB [3]) | inhibition at 1000 µM (SpNanB [4]) [%] | inhibition at 1000 µM (AuSialidase) [%] | inhibition at 1000 µM (PmST1 [5]) [%] | Percentage inhibition (%) against CpNanI (CpNanI) [%] | inhibition at 1000 µM (hNEU2) [%] | inhibition at 1000 µM (VcSialidase) [%] | inhibition at 1000 µM (SpNanC [6]) [%] | inhibition at 1000 µM (BiNanH2 [7]) [%] | inhibition at 1000 µM (SpNanA) [%] | inhibition at 100 µM (SpNanC [8]) [%] | inhibition at 100 µM (PmST1 [9]) [%] | inhibition at 100 µM (BiNanH2 [10]) [%] | inhibition at 100 µM (SpNanB [11]) [%] | inhibition at 100 µM (CpNanH) [%] | Km (SpNanC [12]) [µM] | kcat (SpNanC [12]) [s⁻¹]
CC(=O)N[C@H]1[C@H]([C@H](O)[C@H](O)CO)OC(O[C@H]2[C@@H](O)[C@@H](CO)O[C@@H](Oc3ccc([N+](=O)[O-])cc3)[C@@H]2O)(C(=O)O)C[C@@H]1O (stereo partly shown) [Neu5Acα2-3GalβpNP] | 2700 ± 500 | 406.8 ± 39.0 | 85.1 ± 2.4 | + (+ represents >80% conversion) | – | – | – | – | – | – | – | – | – | – | – | – | – | – | – | –
N[C@H]1[C@H]2O[C@@](C(=O)O)(C[C@@H]1O)O[C@@H]2[C@H](O)CO [2-3, 5-Amino-2,7-anhydro-3,5-dideoxy-α-D-glycero-D-galacto-non-2-ulopyranosonic acid] | – | – | – | – | 11.7 ± 2.6 | 1.3 ± 2.2 | 13.8 ± 3.3 | 10.1 ± 5.7 | 1.4 ± 2.4 | 1.3 ± 2 | 14.9 ± 3 | 3.2 ± 3.2 | 19.3 ± 4.2 | – | – | – | – | – | – | –
CC(=O)N[C@H]1[C@H]([C@H](O)[C@H](O)CO)OC(C(=O)O)=C[C@@H]1O [compound 6, 5-Acetamido-2,6-anhydro-3,5-dideoxy-D-glycero-D-galacto-non-2-enonic acid, reference compound] | – | – | – | – | 26.1 ± 1 | 99.6 ± 0.6 | 15.8 ± 0.1 | 93.3 ± 3.8 | – | 98.8 ± 0.1 | 9 ± 3.5 | 95.3 ± 0.2 | 98.9 ± 1.8 | 11 | 2 | > 50 | 4 | 2 | – | –
CC(=O)N[C@H]1[C@H]([C@H](O)[C@H](O)CO)O[C@@](O[C@H]2[C@@H](O)[C@@H](CO)O[C@@H](O[C@H]3[C@H](O)[C@@H](O)C(O)O[C@@H]3CO)[C@@H]2O)(C(=O)O)C[C@@H]1O (stereo partly drawn) [α2-3-sialyllactose] | – | – | – | – | – | – | – | – | – | – | – | – | – | – | – | – | – | – | 1080 ± 350 | 0.313 ± 0.052
